The test system of data set [1] is tumor endothelial CD31. The data set can be described thus: immunofluorescent staining of tumors: CD31. It is filed as in vivo, BALB/c mice. Conditions: single SC injection of 3 mg or 10 mg crystals, compared to daily bolus. Here is the method: To confirm the effects seen at the level of RNA, immunofluorescent staining of excised tumor samples that were in parallel fixed with paraformaldehyde and embedded in paraffin was performed. […] Co-localization of CD31 with aSMact was, as expected, not linked in crystal sorafenib-treated tumors, where CD31 reduction was more extensive than with daily, bolus sorafenib.
Immunofluorescence imaging was used to determine anti-angiogenic drug efficacy. Tumor tissues were retrieved from mice and fixed overnight using 4% paraformaldehyde at 4° C. After fixation, retrieved tissue samples were moved to 70% ethanol. Samples were then processed for paraffin embedding, sectioning and staining. […] Next, tissues were incubated for 1 hour in an immunostaining cocktail solution consisting of NucBlue (Thermo), specific marker probes (1:200 dilution) anti-CD31 (Cat#DIA-310, HistoBioTec) and anti-alphaSmoothMuscle actin-Cy3 (Sigma) in Dako staining buffer. For CD31, a goat anti-rat alexa-fluor647 secondary antibody was also used (1:400). After staining, samples were rinsed again with 1X PBS three times prior to slides being cover slipped with Pro-long anti-fade Gold (Thermo). […] For stain quantification, images were converted into 8-bit image files, a background threshold was determined using NIH ImageJ, and then all images were processed using an NIH ImageJ macro to quantify the area of positive stain. […]

The nature of data set [2]: crystal stability in aqueous solutions (brightfield microscopy). Type of data set: physicochemical. The settings on record: 1-2 mg crystal, 300 μL saline, RPMI-1640 media, 1X PBS or saline with 0.1% SDS; solutions replaced every hour; after 36 hours. The source says: After crystals visibly stopped precipitating or growing, the vessel was submerged in an ultrasonic water bath for 10-30 seconds to dislodge crystals from the vessel sidewall and break them into more a uniform size distributions, either smaller fines, for example 50 μm, or between 150-200 μm, as measured by brightfield and scanning electron microscopy, shown in FIGS. 2A-2B. Resultant product was then removed from the supernatant mother solution, dried, weighed, and stored for later use. On average, yielded crystal was approximately 40% of the starting powder. Furthermore, methods exist to quantify solubilized material, typically using optics to identify changes in light transmittance, and enabled testing of crystal stability in a range of aqueous solutions. To do so, between 1-2 mg of crystal was placed in a 96-well plate with 300 μL of DMSO, saline, RPMI-1640 media, 1X phosphate buffer solution (PBS), or saline with 0.1% sodium dodecyl sulfate (SDS). […] To simulate cumulative drug release over time, all 3 mL supernatant volumes were removed and replaced with completely fresh release media at desired times of 1 hr, 4 hr, 6 hr, 8 hr, 10 hr, 1 day, 2 days, 5 days, 7 days, 10 days and 12 days, and 200 μL aliquots were measured in individual wells of a 96-well plate at 266 nm to determine solubilize sorafenib release, as shown in FIG. 2D.

SMILES strings stand for the structures.

Consider `CNC(=O)c1cc(Oc2ccc(NC(=O)Nc3ccc(Cl)c(C(F)(F)F)c3)cc2)ccn1` [crystalline sorafenib, sorafenib], for which the “tumor endothelial CD31 levels (immunofluorescence)” value in data set [1] is “reduction is greater”. Further, the “difference in crystal size by brightfield microscopy” value in data set [2] is “no noticeable difference”.
